Activity calls are given as the source filed them.
Tests used:
Type in all cases: functional, organism-based
Staphylococcus aureus [1] = assay: Antimicrobial activity against Staphylococcus aureus at < 10 ug/ml
Enterococcus faecalis = assay: Antimicrobial activity against Enterococcus faecalis at < 10 ug/ml
Escherichia coli = assay: Antimicrobial activity against Escherichia coli at < 10 ug/ml
Pseudomonas aeruginosa = assay: Antimicrobial activity against Pseudomonas aeruginosa at < 10 ug/ml
Staphylococcus aureus [2] = assay: Antimicrobial activity against methicillin-resistant Staphylococcus aureus at < 10 ug/ml
Enterococcus faecium = assay: Antimicrobial activity against vancomycin-resistant Enterococcus faecium at < 10 ug/ml

Measured: Activity

C=C1C(=O)OCC1C/C=C(\C)CC(=O)C=C(C)C (stereo unspecified)
inactive: Staphylococcus aureus [1] | Enterococcus faecalis | Escherichia coli | Pseudomonas aeruginosa | Staphylococcus aureus [2] | Enterococcus faecium

Source: ChEMBL document CHEMBL1158713, “Anthecotulide: purification, analytical data, absence from chamomile preparations, stability and reactivity, and anti-infective testing” (J Nat Prod, 2005)
